Assay results taken from ChEMBL document CHEMBL4507282, “Data for DCP probe BI-1950” (2021).

Experiments:
[1] = molecular target: Calcium/calmodulin-dependent protein kinase type II subunit beta (Homo sapiens) (UniProt Q13554); conditions: Compound concentration 1000.0 nM
[2] = molecular target: Serine/threonine-protein kinase PRP4 homolog (Homo sapiens) (UniProt Q13523); conditions: Compound concentration 1000.0 nM
[3] = molecular target: Cyclin-dependent kinase 4 (Homo sapiens) (UniProt P11802); conditions: Compound concentration 1000.0 nM
[4] = molecular target: NUAK family SNF1-like kinase 1 (Homo sapiens) (UniProt O60285); conditions: Compound concentration 1000.0 nM
[5] = molecular target: Discoidin domain-containing receptor 2 (Homo sapiens) (UniProt Q16832); conditions: Compound concentration 1000.0 nM
[6] = molecular target: Mitogen-activated protein kinase kinase kinase 15 (Homo sapiens) (UniProt Q6ZN16); conditions: Compound concentration 1000.0 nM
[7] = molecular target: Casein kinase I isoform alpha (Homo sapiens) (UniProt P48729); conditions: Compound concentration 1000.0 nM
[8] = molecular target: Serine/threonine-protein kinase PLK4 (Homo sapiens) (UniProt O00444); conditions: Compound concentration 1000.0 nM
[9] = molecular target: GABA-A receptor; anion channel (Rattus norvegicus) (UniProt O09028+P15431+P18506+P18508+P19969+P20236+P23574+P23576+P28471+P28473+P30191+P62813+P63079+P63138+Q91ZM7+Q9ES14); conditions: Compound concentration 10.0 uM
[10] = molecular target: Histamine H3 receptor (Homo sapiens) (UniProt Q9Y5N1); conditions: Compound concentration 10.0 uM
[11] = molecular target: Vascular endothelial growth factor receptor 2 (Homo sapiens) (UniProt P35968); conditions: Compound concentration 1000.0 nM
[12] = molecular target: Serine/threonine-protein kinase PAK 1 (Homo sapiens) (UniProt Q13153); conditions: Compound concentration 1000.0 nM
[13] = molecular target: Serine/threonine-protein kinase 17A (Homo sapiens) (UniProt Q9UEE5); conditions: Compound concentration 1000.0 nM
[14] = molecular target: Muscarinic acetylcholine receptor M4 (Homo sapiens) (UniProt P08173); conditions: Compound concentration 10.0 uM
[15] = molecular target: Casein kinase I isoform delta (Homo sapiens) (UniProt P48730); conditions: Compound concentration 1000.0 nM
[16] = system: Phosphatidylinositol 4,5-bisphosphate 3-kinase catalytic subunit alpha isoform (Homo sapiens), P42336 [H1047Y]; conditions: Compound concentration 1000.0 nM
[17] = system: Tyrosine-protein kinase ABL1 (Homo sapiens), P00519 [E255K]; conditions: Compound concentration 1000.0 nM
[18] = molecular target: Cyclin-dependent kinase-like 1 (Homo sapiens) (UniProt Q00532); conditions: Compound concentration 1000.0 nM
Chain of Cyclin-dependent kinase-like 1 (Homo sapiens) (Q00532 whole entry): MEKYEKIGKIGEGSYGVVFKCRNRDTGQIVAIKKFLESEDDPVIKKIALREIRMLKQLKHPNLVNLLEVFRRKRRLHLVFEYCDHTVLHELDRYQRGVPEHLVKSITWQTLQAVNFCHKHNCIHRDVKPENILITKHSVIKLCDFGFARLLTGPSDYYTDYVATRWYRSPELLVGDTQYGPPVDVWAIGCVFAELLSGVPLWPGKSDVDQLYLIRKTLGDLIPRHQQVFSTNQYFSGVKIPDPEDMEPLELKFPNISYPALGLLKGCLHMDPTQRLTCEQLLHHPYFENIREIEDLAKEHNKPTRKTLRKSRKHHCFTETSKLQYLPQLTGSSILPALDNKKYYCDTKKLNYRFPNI

[19] = molecular target: Inhibitor of nuclear factor kappa-B kinase subunit beta (Homo sapiens) (UniProt O14920); conditions: Compound concentration 1000.0 nM
Chain of Inhibitor of nuclear factor kappa-B kinase subunit beta (Homo sapiens) (O14920 whole entry): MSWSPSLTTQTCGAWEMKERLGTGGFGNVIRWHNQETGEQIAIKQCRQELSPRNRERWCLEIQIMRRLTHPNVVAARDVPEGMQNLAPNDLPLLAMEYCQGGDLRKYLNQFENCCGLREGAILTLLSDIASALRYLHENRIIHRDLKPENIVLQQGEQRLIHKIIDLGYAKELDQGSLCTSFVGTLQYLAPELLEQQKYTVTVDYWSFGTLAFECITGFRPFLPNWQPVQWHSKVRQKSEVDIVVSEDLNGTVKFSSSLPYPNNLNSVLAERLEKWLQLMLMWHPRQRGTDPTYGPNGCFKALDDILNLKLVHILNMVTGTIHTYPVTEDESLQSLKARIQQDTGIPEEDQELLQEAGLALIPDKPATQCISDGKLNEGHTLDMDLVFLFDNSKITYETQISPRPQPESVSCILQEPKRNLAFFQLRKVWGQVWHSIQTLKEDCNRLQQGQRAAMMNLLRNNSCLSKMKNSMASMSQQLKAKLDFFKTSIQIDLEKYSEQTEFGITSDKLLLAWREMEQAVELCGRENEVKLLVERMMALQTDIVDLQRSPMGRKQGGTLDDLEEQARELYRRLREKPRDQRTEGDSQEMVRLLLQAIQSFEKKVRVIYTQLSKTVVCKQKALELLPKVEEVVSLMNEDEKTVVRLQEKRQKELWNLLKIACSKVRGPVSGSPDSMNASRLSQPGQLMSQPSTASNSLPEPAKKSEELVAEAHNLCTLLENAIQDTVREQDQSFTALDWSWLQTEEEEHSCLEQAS

[20] = molecular target: Tyrosine-protein kinase FRK (Homo sapiens) (UniProt P42685); conditions: Compound concentration 1000.0 nM
[21] = molecular target: Receptor tyrosine-protein kinase erbB-4 (Homo sapiens) (UniProt Q15303); conditions: Compound concentration 1000.0 nM
[22] = molecular target: Tyrosine-protein kinase Yes (Homo sapiens) (UniProt P07947); conditions: Compound concentration 1000.0 nM
[23] = molecular target: Myosin-IIIb (Homo sapiens) (UniProt Q8WXR4); conditions: Compound concentration 1000.0 nM
[24] = molecular target: Ephrin type-B receptor 3 (Homo sapiens) (UniProt P54753); conditions: Compound concentration 1000.0 nM
[25] = molecular target: Aurora kinase C (Homo sapiens) (UniProt Q9UQB9); conditions: Compound concentration 1000.0 nM
[26] = molecular target: Ephrin type-A receptor 6 (Homo sapiens) (UniProt Q9UF33); conditions: Compound concentration 1000.0 nM
[27] = molecular target: Alpha-2C adrenergic receptor (Homo sapiens) (UniProt P18825); conditions: Compound concentration 10.0 uM
[28] = molecular target: Serine/threonine-protein kinase haspin (Homo sapiens) (UniProt Q8TF76); conditions: Compound concentration 1000.0 nM
[29] = molecular target: 5-hydroxytryptamine receptor 2B (Homo sapiens) (UniProt P41595); conditions: Compound concentration 10.0 uM
Chain of 5-hydroxytryptamine receptor 2B (Homo sapiens) (P41595 whole entry): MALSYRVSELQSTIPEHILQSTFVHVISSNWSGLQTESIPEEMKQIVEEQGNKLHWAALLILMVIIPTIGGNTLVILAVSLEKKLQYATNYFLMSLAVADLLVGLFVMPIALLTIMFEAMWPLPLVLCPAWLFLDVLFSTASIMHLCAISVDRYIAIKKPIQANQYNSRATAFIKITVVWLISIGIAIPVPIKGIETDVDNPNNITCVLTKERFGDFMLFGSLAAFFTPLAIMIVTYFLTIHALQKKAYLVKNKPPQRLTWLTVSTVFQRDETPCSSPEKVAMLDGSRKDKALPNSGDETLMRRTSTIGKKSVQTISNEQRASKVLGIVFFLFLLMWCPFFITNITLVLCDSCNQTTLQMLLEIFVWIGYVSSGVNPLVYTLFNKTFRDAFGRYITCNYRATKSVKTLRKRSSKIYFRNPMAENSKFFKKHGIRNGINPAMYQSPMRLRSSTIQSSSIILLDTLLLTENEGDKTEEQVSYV

[30] = molecular target: Beta-adrenergic receptor kinase 1 (Homo sapiens) (UniProt P25098); conditions: Compound concentration 1000.0 nM
[31] = system: Epidermal growth factor receptor (Homo sapiens), P00533 [L861Q]; conditions: Compound concentration 1000.0 nM
[32] = molecular target: RAC-beta serine/threonine-protein kinase (Homo sapiens) (UniProt P31751); conditions: Compound concentration 1000.0 nM
Chain of RAC-beta serine/threonine-protein kinase (Homo sapiens) (P31751 whole entry): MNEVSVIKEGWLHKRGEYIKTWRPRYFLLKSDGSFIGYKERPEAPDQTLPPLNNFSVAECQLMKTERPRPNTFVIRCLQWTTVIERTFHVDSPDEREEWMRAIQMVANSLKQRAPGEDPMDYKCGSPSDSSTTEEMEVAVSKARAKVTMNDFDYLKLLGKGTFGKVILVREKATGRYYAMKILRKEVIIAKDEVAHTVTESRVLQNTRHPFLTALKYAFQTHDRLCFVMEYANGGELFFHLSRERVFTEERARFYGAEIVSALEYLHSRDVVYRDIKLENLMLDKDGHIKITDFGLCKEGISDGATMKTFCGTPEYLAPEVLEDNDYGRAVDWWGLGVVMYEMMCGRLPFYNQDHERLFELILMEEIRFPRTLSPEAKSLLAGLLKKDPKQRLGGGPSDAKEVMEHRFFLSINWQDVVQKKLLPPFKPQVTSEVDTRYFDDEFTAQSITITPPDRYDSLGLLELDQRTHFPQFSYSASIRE

[33] = system: Mast/stem cell growth factor receptor Kit (Homo sapiens), P10721 [L576P]; conditions: Compound concentration 1000.0 nM
[34] = molecular target: Tyrosine-protein kinase Lyn (Homo sapiens) (UniProt P07948); conditions: Compound concentration 1000.0 nM
Chain of Tyrosine-protein kinase Lyn (Homo sapiens) (P07948 2-512 limits assumed): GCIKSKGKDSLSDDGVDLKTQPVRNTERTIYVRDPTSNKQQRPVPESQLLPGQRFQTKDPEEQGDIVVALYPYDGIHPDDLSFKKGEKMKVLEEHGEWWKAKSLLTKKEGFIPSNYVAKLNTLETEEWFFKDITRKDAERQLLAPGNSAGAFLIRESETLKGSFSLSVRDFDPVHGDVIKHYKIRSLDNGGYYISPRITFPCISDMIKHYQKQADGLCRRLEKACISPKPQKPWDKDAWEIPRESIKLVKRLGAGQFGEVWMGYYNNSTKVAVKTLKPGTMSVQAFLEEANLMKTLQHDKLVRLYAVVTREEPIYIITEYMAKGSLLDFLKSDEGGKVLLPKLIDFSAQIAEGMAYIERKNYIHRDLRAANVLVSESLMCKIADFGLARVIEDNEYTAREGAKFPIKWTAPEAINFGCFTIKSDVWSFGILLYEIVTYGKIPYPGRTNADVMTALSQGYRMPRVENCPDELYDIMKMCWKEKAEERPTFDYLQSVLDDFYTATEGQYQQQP

[35] = molecular target: Tyrosine-protein kinase TXK (Homo sapiens) (UniProt P42681); conditions: Compound concentration 1000.0 nM
Chain of Tyrosine-protein kinase TXK (Homo sapiens) (P42681 whole entry): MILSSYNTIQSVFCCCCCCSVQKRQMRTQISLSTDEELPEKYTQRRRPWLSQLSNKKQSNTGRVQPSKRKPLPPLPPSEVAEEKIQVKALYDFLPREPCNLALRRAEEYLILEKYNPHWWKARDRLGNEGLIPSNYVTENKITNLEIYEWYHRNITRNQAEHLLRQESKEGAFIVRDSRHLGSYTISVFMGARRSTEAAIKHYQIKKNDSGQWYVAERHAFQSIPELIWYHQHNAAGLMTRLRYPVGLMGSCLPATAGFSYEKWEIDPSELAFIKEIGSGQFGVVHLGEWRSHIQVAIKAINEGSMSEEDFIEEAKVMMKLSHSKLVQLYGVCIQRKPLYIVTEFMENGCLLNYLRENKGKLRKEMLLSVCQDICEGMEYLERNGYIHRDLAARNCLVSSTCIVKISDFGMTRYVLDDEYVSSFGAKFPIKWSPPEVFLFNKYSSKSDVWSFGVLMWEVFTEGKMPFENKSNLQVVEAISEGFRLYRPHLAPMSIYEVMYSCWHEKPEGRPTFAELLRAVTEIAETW

[36] = molecular target: Testis-specific serine/threonine-protein kinase 1 (Homo sapiens) (UniProt Q9BXA7); conditions: Compound concentration 1000.0 nM
Chain of Testis-specific serine/threonine-protein kinase 1 (Homo sapiens) (Q9BXA7 whole entry): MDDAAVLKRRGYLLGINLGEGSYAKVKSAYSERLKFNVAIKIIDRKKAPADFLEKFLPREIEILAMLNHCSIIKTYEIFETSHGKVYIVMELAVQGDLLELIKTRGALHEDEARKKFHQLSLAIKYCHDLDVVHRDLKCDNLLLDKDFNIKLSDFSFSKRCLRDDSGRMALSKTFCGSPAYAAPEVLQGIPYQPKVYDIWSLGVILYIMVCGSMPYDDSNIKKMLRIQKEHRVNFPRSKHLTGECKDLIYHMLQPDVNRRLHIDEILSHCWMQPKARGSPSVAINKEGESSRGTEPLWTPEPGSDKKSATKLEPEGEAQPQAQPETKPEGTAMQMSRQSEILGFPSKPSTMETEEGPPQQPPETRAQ

[37] = molecular target: Phosphatidylinositol 5-phosphate 4-kinase type-2 beta (Homo sapiens) (UniProt P78356); conditions: Compound concentration 1000.0 nM
[38] = molecular target: Tyrosine-protein kinase ZAP-70 (Homo sapiens) (UniProt P43403); conditions: Compound concentration 1000.0 nM
[39] = molecular target: Serine/threonine-protein kinase Nek10 (Homo sapiens) (UniProt Q6ZWH5); conditions: Compound concentration 1000.0 nM
[40] = molecular target: MAP kinase-activated protein kinase 2 (Homo sapiens) (UniProt P49137); conditions: Compound concentration 1000.0 nM
[41] = molecular target: ALK tyrosine kinase receptor (Homo sapiens) (UniProt Q9UM73); conditions: Compound concentration 1000.0 nM
[42] = molecular target: Serine/threonine-protein kinase PAK 2 (Homo sapiens) (UniProt Q13177); conditions: Compound concentration 1000.0 nM
Chain of Serine/threonine-protein kinase PAK 2 (Homo sapiens) (Q13177 whole entry): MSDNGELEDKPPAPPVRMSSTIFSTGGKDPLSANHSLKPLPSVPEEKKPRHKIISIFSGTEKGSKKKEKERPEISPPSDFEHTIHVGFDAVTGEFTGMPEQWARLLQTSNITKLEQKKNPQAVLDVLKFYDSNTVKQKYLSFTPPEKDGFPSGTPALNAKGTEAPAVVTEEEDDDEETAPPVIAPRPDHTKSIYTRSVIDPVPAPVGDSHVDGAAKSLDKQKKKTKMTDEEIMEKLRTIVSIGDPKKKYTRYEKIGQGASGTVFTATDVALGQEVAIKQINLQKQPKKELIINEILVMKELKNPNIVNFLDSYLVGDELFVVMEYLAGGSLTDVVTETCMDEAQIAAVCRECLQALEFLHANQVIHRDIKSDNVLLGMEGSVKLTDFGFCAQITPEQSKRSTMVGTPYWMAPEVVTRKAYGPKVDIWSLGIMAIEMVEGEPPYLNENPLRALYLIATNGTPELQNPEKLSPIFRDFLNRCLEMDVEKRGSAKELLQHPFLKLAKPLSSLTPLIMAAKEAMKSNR

[43] = molecular target: Ribosomal protein S6 kinase alpha-3 (Homo sapiens) (UniProt P51812); conditions: Compound concentration 1000.0 nM
[44] = molecular target: Serine/threonine-protein kinase B-raf (Homo sapiens) (UniProt P15056); conditions: Compound concentration 1000.0 nM

Chain of Serine/threonine-protein kinase PRP4 homolog (Homo sapiens) (Q13523 whole entry): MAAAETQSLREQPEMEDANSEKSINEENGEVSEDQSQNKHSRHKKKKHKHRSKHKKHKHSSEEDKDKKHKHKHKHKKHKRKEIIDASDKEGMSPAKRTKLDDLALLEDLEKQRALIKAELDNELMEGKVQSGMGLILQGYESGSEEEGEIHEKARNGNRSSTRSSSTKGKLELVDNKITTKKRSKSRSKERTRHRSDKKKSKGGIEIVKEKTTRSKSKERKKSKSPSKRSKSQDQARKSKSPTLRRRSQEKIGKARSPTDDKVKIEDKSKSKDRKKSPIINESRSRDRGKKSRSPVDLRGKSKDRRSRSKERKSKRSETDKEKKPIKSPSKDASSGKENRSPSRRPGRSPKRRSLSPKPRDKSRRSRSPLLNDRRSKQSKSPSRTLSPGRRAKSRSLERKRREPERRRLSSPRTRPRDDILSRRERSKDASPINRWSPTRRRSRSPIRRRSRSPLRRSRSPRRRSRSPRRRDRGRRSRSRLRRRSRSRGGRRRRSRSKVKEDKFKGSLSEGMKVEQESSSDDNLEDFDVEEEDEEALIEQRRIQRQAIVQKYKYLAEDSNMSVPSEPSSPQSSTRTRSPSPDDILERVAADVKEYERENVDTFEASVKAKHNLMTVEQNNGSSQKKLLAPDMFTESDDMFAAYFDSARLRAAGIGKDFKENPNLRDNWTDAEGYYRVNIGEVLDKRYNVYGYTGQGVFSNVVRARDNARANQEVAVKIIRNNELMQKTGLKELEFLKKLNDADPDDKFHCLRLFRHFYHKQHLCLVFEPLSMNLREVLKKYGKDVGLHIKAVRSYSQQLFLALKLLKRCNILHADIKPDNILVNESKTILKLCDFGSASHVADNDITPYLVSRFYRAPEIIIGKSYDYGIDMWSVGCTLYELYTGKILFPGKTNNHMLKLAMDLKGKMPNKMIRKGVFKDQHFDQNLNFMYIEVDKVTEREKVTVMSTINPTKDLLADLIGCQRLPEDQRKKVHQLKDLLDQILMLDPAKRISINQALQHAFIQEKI

C[C@H](NC(=O)c1cnc2n1[C@](C)(Cc1ccc(C#N)cc1)C(=O)N2c1cc(Cl)c(F)c(Cl)c1)C(=O)NC1(c2ccccn2)CC1 [BI 1950]
inactive: residual activity [1] 100% | residual activity [2] 77% | residual activity [3] 100% | residual activity [4] 99% | residual activity [5] 100% | residual activity [6] 76% | residual activity [7] 100% | residual activity [8] 88% | inhibition [9] -4.17% | inhibition [10] 1.43% | residual activity [11] 99% | residual activity [12] 95% | residual activity [13] 100% | inhibition [14] 12.1% | residual activity [15] 100% | residual activity [16] 100% | residual activity [17] 93% | residual activity [18] 73% | residual activity [19] 90% | residual activity [20] 68% | residual activity [21] 100% | residual activity [22] 100% | residual activity [23] 100% | residual activity [24] 100% | residual activity [25] 100% | residual activity [26] 100% | inhibition [27] 0.16% | residual activity [28] 100% | inhibition [29] 17.2% | residual activity [30] 100% | residual activity [31] 100% | residual activity [32] 100% | residual activity [33] 83% | residual activity [34] 100% | residual activity [35] 90% | residual activity [36] 79% | residual activity [37] 100% | residual activity [38] 100% | residual activity [39] 100% | residual activity [40] 100% | residual activity [41] 100% | residual activity [42] 92% | residual activity [43] 100% | residual activity [44] 100%

C[C@@]1(Cc2ccc(C#N)cc2)C(=O)N(c2cc(Cl)cc(Cl)c2)c2ncc(C(=O)NC3(c4nc(C5CCC5)no4)CC3)n21 [BI 9446]
inactive: residual activity [1] 90% | residual activity [2] 91% | residual activity [3] 93% | residual activity [4] 100% | residual activity [5] 100% | residual activity [6] 81% | residual activity [7] 100% | residual activity [8] 90% | inhibition [9] -8.68% | inhibition [10] 20% | residual activity [11] 100% | residual activity [12] 99% | residual activity [13] 91% | inhibition [14] 21.6% | residual activity [15] 100% | residual activity [16] 100% | residual activity [17] 95% | residual activity [18] 100% | residual activity [19] 100% | residual activity [20] 81% | residual activity [21] 100% | residual activity [22] 100% | residual activity [23] 99% | residual activity [24] 99% | residual activity [25] 100% | residual activity [26] 88% | inhibition [27] 9.3% | residual activity [28] 100% | inhibition [29] 15.5% | residual activity [30] 100% | residual activity [31] 100% | residual activity [32] 100% | residual activity [33] 100% | residual activity [34] 95% | residual activity [35] 100% | residual activity [36] 76% | residual activity [37] 97% | residual activity [38] 90% | residual activity [39] 100% | residual activity [40] 100% | residual activity [41] 100% | residual activity [42] 64% | residual activity [43] 100% | residual activity [44] 100%
